Like-named read-outs stand apart in the source and are kept apart here.
Target: α-glucosidase (Saccharomyces cerevisiae, UniProt P53341)
Assay: biochemical
[1] = read-out: α-glucosidase inhibitory activity IC50
[2] = positive control 1-deoxynojirimycin, DMSO blank, read-out: α-glucosidase inhibitory activity IC50

α-glucosidase, sequence (P53341 whole entry): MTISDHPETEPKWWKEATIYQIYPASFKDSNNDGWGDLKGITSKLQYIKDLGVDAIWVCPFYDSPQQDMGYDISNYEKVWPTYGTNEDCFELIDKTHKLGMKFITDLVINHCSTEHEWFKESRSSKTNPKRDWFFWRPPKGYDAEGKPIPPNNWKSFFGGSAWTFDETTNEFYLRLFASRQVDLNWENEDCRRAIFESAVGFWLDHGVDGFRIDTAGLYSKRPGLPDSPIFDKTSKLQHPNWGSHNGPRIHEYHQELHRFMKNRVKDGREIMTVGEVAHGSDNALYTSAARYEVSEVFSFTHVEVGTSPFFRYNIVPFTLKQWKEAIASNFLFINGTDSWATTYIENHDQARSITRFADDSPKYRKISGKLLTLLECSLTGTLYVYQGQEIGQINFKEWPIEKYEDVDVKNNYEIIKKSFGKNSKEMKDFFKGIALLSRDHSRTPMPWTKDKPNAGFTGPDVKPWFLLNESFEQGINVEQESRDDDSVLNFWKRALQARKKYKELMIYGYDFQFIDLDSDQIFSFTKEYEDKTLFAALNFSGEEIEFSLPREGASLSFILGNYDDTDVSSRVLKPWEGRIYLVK

| SMILES | IC50 [1] | other results |
| --- | --- | --- |
| CCC(C)CC(C)C=C(C)C1OC(c2c(O)c(-c3ccccc3)cn(C)c2=O)CCC1C (stereo not drawn) [Compound 1, Sambutoxin A] |  | IC50: 12.6 ± 0.9 µM |
| CCC(C)CC(C)C=C(C)C1OC(c2c(O)c(-c3ccc(O)cc3)cn(C)c2=O)CC=C1C (stereo not drawn) [Compound 2, Sambutoxin B] |  | IC50: 37.4 ± 1.4 µM |
| CC[C@H](C)C[C@@H](C)/C=C(\C)[C@@H]1O[C@H](c2c(O)c(-c3ccc(O)cc3)cn(C)c2=O)CC[C@H]1C [Compound 3, (–)-sambutoxin] |  | IC50: 16.9 ± 0.6 µM |
| C/C=C/[C@@H]1[C@H]2C[C@@H](C)CC[C@@H]2C(C)=C[C@H]1C(=O)c1c(O)c(-c2ccc(O)cc2)c[nH]c1=O [Compound 4, ilicicolin H] | 16.5 ± 0.7 µM |  |
| C/C=C/[C@@H]1Oc2c(-c3ccccc3)c[nH]c(=O)c2[C@@H]2[C@H]1CCC[C@H]2C [Compound 5, deoxyleporin B] | 57.3 ± 1.3 µM |  |
| C/C=C/[C@@H]1Oc2c(-c3ccccc3)cn(O)c(=O)c2[C@@H]2[C@H]1CCC[C@H]2C [Compound 6, leporine B] | > 100 µM |  |
| CCC(C)C(=O)OC1(C)C(=O)C(C)=C(OC)C1O (stereo not drawn) [Compound 7, Talaketides A] | > 100 µM |  |
| COC1=CC(=O)C(C)(O)C1(O)C(C)=O (stereo not drawn) [Compound 8, Talaketides B] | > 100 µM |  |
| CCC(C)C(=O)OC1(C)C(=O)C(C)=C(OC)CC1OC (stereo not drawn) [Compound 9, Talaketides C] | > 100 µM |  |
| COC1=CC(=O)C(C)(O)C(O)C1C (stereo not drawn) [Compound 10, Talaketides D] | > 100 µM |  |
| COC1=CC(=O)C(C)(O)C(O)C1C (stereo not drawn) [Compound 11, Talaketides E] |  | IC50 [2]: > 100 µM |
| COC1=CC(=O)C(C)(O)C(O)C1C (stereo not drawn) [Compound 12, Talaketides F] |  | IC50 [2]: > 100 µM |

Source: article PMC8465095, “Secondary Metabolites with α-Glucosidase Inhibitory Activity from Mangrove Endophytic Fungus Talaromyces sp. CY-3” (Marine Drugs, 2021)
